Among the data in PubChem BioAssay (NCI) are GI50 and TGI values, retold here.

Holding throughout (experiment): NCI-60 cell line screen, 48 h
Test [1] deals with HT29 colon.
Test [2] relates to RPMI-8226 leukemia.
In test [3] the test system is ACHN renal.
Test [4] has as its system SR leukemia.
For test [5], the system named is NCI-H226 lung.
Test [6] deals with 786-0 renal.
In test [7] the test system is NCI/ADR-RES ovarian.
For test [8], the system named is HCT-116 colon.
Test [9] concerns MCF7 breast.
Test [10] concerns LOX IMVI melanoma.

Where “and” joins values, the source holds several entries; their conditions need not be identical. Identical values can stand only once.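 Test compounds were applied to cells in 96-well plates for 48 hours at 5 doses. Abbreviation: GI50, concentration required for 50% inhibition of growth. TGI is the concentration that stops growth completely.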

For `COC1CC2C=C(C)/C=C/C=C/C(=O)NC(c3ccccc3)C/C=C/CCC(O)CC(=O)C2=C1O` (centres undefined), the GI50 is 0.238 µM in test [1]; 0.186 µM in test [2]; 0.311 µM in test [3]; 0.0956 µM in test [4]; 0.43 µM in [5]; 0.434 µM in test [6]. Also, the GI50 is 0.309 µM in test [7], 0.272 µM in test [8], 0.169 µM in [9] and 0.297 µM in test [10]. In addition, the TGI in test [1] turned out to be 0.854 µM; in test [2], 0.566 µM; in test [3] it was 1.14 µM; in test [4] it was 0.794 µM; in [5] it was 2.17 µM; in test [6] it was 1.66 µM. Also, the TGI in test [7] amounted to 1.19 µM; in test [8], 1.22 µM; in test [9], 0.776 µM; in test [10] it was 1.22 µM.

For `CC[C@@]1(O)C(=O)NCc2c1cc1n(c2=O)Cc2cc3c(N)cccc3nc2-1`, the GI50 in [1] is 15.1 µM; in test [2], 4.23 µM; in test [3], 1.23 µM; in [4], 0.672 µM; in test [5], 2.03 µM; in [6], 1.37 µM. Further, the GI50 is 2.29 µM in test [7], 1.22 µM in test [8], 0.787 µM in test [9] and 0.468 µM in [10]. Besides, the TGI in [1] was > 100 µM; in test [2], > 32.1 µM; in test [3] it was > 46.6 µM; in [4] it was 5.35 µM; in test [5], > 38.9 µM; in [6] it was 11.7 µM. In addition, the TGI is 38.5 µM in [7], 44.2 µM in [8], > 100 µM in test [9] and 9.5 µM in test [10].

For the compound `C[C@]1(CO)[C@H]2CC[C@@]34C=C[C@@](CO)(CC[C@H]3[C@]2(C)CC[C@H]1O)C4`, the TGI in [1] is > 100 µM; in test [2], 86.6 µM; in test [3], > 100 µM; in test [4], > 100 µM; in test [5] it was > 100 µM; in [6], > 100 µM. Also, the TGI in [7], in test [8], in [9] and in test [10] was > 100 µM throughout.

In the case of `CCOC(=O)C(Cc1c[nH]c2ccc(N(CCCl)CCCl)cc12)(NC(C)=O)C(=O)OCC`, the GI50 in test [1] was 16.9 µM and 13.9 µM; in test [2] it was 6.41 µM; in test [3], 0.917 µM and 0.342 µM; in [4] it was 1.86 µM; in test [5], 14.1 µM and 19.4 µM; in test [6], 4.78 µM and 3.71 µM. The GI50 was 14.6 µM and 11.7 µM in test [7]; 11.7 µM and 10.9 µM in test [8]; 2.42 µM and 3.11 µM in [9]; 7.09 µM and 4.88 µM in test [10]. The TGI in test [1] is 77.4 µM; in [2], 33.4 µM; in test [3], 17.3 µM and 8.2 µM; in test [4] it was 7.14 µM; in test [5] it was 41.4 µM and 67.9 µM; in [6], 23.3 µM and 21.8 µM. Moreover, the TGI is 47.3 µM and 64.3 µM in test [7]; 31.3 µM and 37.9 µM in test [8]; 26.8 µM and 96.6 µM in test [9]; 24.6 µM and 35.3 µM in test [10].

Take `CC(C)c1ccc(C(=O)Nc2sc3c(c2C#N)CCC(=O)C3)cc1`: the GI50 is 0.465 µM in test [1]; 0.152 µM in test [2]; 0.33 µM in test [3]; 0.424 µM in test [4]; 3.88 µM in test [5]; 0.67 µM in test [6]. Besides, the GI50 is 0.464 µM in test [7], 0.18 µM in [8], 0.337 µM in test [9] and 0.39 µM in test [10]. Also, the TGI in test [1] was > 21.9 µM; in [3] it was 1.06 µM; in test [4] it was > 100 µM; in [5] it was 16.3 µM; in test [6], > 21.8 µM; in test [7], 11.2 µM. In addition, the TGI is > 24.3 µM in [8], > 45 µM in [9] and > 33.4 µM in test [10].

`CCCCNN`: the TGI in test [1], in [2], in [3], in [4], in [5] and in test [6] was > 100 µM in each case. Also, the TGI in test [7], in [8], in [9] and in test [10] was > 100 µM in each case.

Take `CCOC(=O)C(CO)c1nc2c([nH]c1=O)c(=O)n(C)c(=O)n2C` (centres undefined): the TGI in [1], in test [2], in test [3], in test [4], in [5] and in [6] was > 100 µM throughout. The TGI in test [7], in test [8], in [9] and in [10] was > 100 µM in each case.

Consider `COC(=O)c1c2c(c(C)[n+]([O-])c1C)C(=O)C=C(NCc1ccc(F)c(F)c1)C2=O`, for which the GI50 is 0.304 µM in test [1]; 0.783 µM in test [2]; 0.572 µM in [3]; 0.373 µM in test [4]; 1.44 µM in [5]; 1.35 µM in test [6]. The GI50 in test [7] is 0.313 µM; in test [8], 0.256 µM; in test [9], 0.255 µM; in test [10] it was 0.0825 µM. In addition, the TGI turned out to be 3.17 µM in test [1]; 3.23 µM in test [2]; 2.01 µM in test [3]; 4.06 µM in test [4]; 3.27 µM in test [5]; 3.58 µM in [6]. The TGI in test [7] turned out to be 1.65 µM; in test [8] it was 0.902 µM; in [9], 0.891 µM; in test [10], 1.39 µM.

As to `O=C(NCCCNc1cc(-c2cn(-c3ccccc3)nc2-c2cccc(O)c2)ccn1)c1ccccc1`, the GI50 is 1.71 µM in test [1]; 1.06 µM in test [2]; 3.47 µM in test [3]; 1.68 µM in [4]; 2.72 µM in [5]; 2.04 µM in test [6]. Besides, the GI50 in test [7] is 2.67 µM; in [8] it was 3.58 µM; in [9] it was 1.74 µM; in test [10], 2.25 µM. The TGI is 5.23 µM in [1]; 3.3 µM in test [2]; > 100 µM in test [3]; 5.35 µM in [4]; 17.9 µM in test [5]; 4.69 µM in [6]. The TGI in [7] was 9.79 µM; in test [8], 17 µM; in test [9], 5.29 µM; in test [10], 6.36 µM.

Turning to `CC(C)c1ccc(/C(C(=O)O)=C(\O)C(=O)O)cc1`, the TGI in [1], in test [2], in test [3], in [4], in [5] and in [6] was > 100 µM in each case. Also, the TGI in test [7], in [8], in [9] and in test [10] was > 100 µM in each case.

For the compound `NNc1cccc(/C=C/c2ccccc2)cc1=O`, the GI50 was 10.7 µM in [1]; 3.85 µM in test [2]; 7.27 µM in test [3]; 3.85 µM in test [4]; 19.9 µM in [5]; 19.9 µM in [6]. Also, the GI50 in [7] was 4.36 µM; in test [8], 7.3 µM; in test [9], 8.32 µM; in [10], 5.07 µM. In addition, the TGI in [1], in test [2], in test [3], in test [4], in [5] and in test [6] was > 100 µM each time. Also, the TGI in [7], in test [8], in test [9] and in [10] was > 100 µM throughout.

On to `O=C1C=C(Br)C(=O)C12CCc1ccccc12` (centres undefined), for which the TGI was 45 µM in [1]; > 37.5 µM in [2]; 24.7 µM in [3]; 17.3 µM in test [4]; 35.8 µM in [5]; 42.3 µM in test [6]. Also, the TGI stood at 81.3 µM in test [7], 28.7 µM in [8], 48.5 µM in [9] and 31.7 µM in test [10].

As for `CN1CCCN(C)C1c1cc([N+](=O)[O-])ccc1O`, the TGI in [1] was > 100 µM; in [2], > 100 µM; in test [3] it was 64.3 µM; in [4] it was 59.3 µM; in test [5], 82.5 µM; in test [6] it was > 100 µM. Further, the TGI in test [7] is > 100 µM; in test [8], > 100 µM; in test [9], 63.3 µM; in test [10], > 100 µM.

For the compound `COc1ccc(/C=C/c2nc(NCCCN(C)C)c3ccccc3n2)cc1`, the GI50 in [1] was 1.61 µM; in test [2], 1.78 µM; in [3], 17.1 µM; in test [4], 1.86 µM; in [5] it was 12 µM; in test [6], 13.3 µM. Moreover, the GI50 in [7] was > 100 µM; in test [8], 2.3 µM; in test [9] it was 1.72 µM; in [10], 1.83 µM. The TGI turned out to be 3.13 µM in test [1]; 4.64 µM in [2]; 31.7 µM in test [3]; 4.2 µM in [4]; 30.7 µM in [5]; 26.7 µM in [6]. Further, the TGI in [7] is > 100 µM; in [8], 5.88 µM; in test [9], 3.23 µM; in test [10] it was 3.42 µM.

With `CCCCCCCCCCN(CCCCCCCCCC)CC(=O)c1ccc2cc(Br)c3ccccc3c2c1`, the GI50 was 1.32 µM in test [1]; 2.27 µM in test [2]; 1.68 µM in test [3]; 1.3 µM in test [4]; 1.77 µM in test [5]; 1.81 µM in test [6]. Moreover, the GI50 in [7] is 1.79 µM; in test [8] it was 1.67 µM; in [9] it was 1.8 µM; in test [10] it was 1.75 µM. For the same compound, the TGI came out at 2.77 µM in test [1]; 4.88 µM in test [2]; 3.19 µM in [3]; 4.19 µM in test [4]; 3.47 µM in [5]; 3.39 µM in test [6]. For the same compound, the TGI in test [7] is 3.52 µM; in test [8], 3.17 µM; in test [9], 3.25 µM; in test [10] it was 3.32 µM.

`O=c1[nH]c(=O)n(C2OC(CO)C(O)C2O)c2c1CCCC2` (centres undefined): the TGI in test [1], in test [2], in [3], in [4], in test [5] and in [6] was > 100 µM in each case. In addition, the TGI in test [7], in [8], in test [9] and in test [10] was > 100 µM in each case.
